The test system of data set [1] is PKA. The data set can be described thus: PKA inhibitor H89 treatment of FG01-transfected N2aSwe cells. Type of data set: cell-based, mouse. As to conditions: H89 2 μM, 4 hrs, FG01-transfected N2a/Swe cells. The procedure: After 48 hr incubation, cell media were changed to Opti-MEM (Invitrogen) containing DMSO or a PKA activity inhibitor H89 (2 μM) and cells were incubated for additional 4 hrs. The cell media were used for Aβ immunoprecipitation-Western blotting and cell lysates were subjected to Western blotting for p-CREB (substrate for PKA) and p-GSK3β. As shown, inhibiting PKA activity with H89 prevented serine phosphorylation of CREB and GSK3β by FG01.
N2aSwe cells were transfected with control vector or FG01 and then equally split. Four hours before collection, cells were treated with the GSK-3 inhibitor lithium chloride (5 mM) or sodium chloride (5 mM, as control). Alternatively, cells were treated with a PKA inhibitor H89 at 10 μM or with DMSO for control.

The subject of data set [2] is FG01. The data set can be described thus: FG01 RNA interference in N2aSwe cells. Type of data set: cell-based, mouse. From the text:
Cells were collected for mRNA extraction, reverse-transcription, and PCR amplification with FG01 specific primers to study the knockdown efficiency (upper panel), n=3. Alternatively, cells were lysed and cell lysates subjected to Western blotting for p-CREB, CREB, p-GSK3β, and GSK3β. Aβ in conditioned media was subjected to immunoprecipitation-Western blotting (lower panels). As shown, knockdown of FG01 coincided with a concomitant decrease in GSK3β phosphorylation (inactivation). **: p<0.01. […] Moreover, as PKA is a cAMP-dependent protein kinase, FG01 is likely having this effect through adenylyl cyclase (AC) activation of cAMP.
The mouse FG01 siRNA used was: 5′-[…]-3′ (SEQ ID NO:20). The control siRNA was from Invitrogen. siRNA was transfected into N2a cells using Lipofectamine RNAiMAX reagent (Invitrogen), following the manufacturer's protocol. After FG01 RNA interference, total RNA was extracted from N2a cells by Trizol reagent (Invitrogen). After reverse transcription into first strand cDNA using standard conditions, samples were analyzed independently by real-time PCR using an iCycler iQ with SYBR green supermix (Bio-Rad). The FG01 primer pair used for amplification was: 5′: […] (SEQ ID NO:21) and 3′: […] (SEQ ID NO:22). A pair of β-actin primers served as controls (Zhang et al., 2007).

Setting [3] is: downregulation of endogenous FG01 in N2aSwe cells.

With `O=S(=O)(NCCNC/C=C/c1ccc(Br)cc1)c1cccc2cnccc12` [H89, reference compound], in data set [1], the “serine phosphorylation of CREB by FG01” value was “prevented” and the “serine phosphorylation of GSK3β by FG01” value was “prevented”.
As for “FG01 siRNA: mouse FG01 siRNA 5′-UACUGUUUGUCAUGCCACUUCUGAU-3′ (SEQ ID NO:20) (listed as RNA, chemistry not given here)”, in data set [2] (setting [3]), the Aβ generation entry is on record as “increased”, the CREB phosphorylation entry is “dramatically reduced” and the GSK-3 activity entry was “increased”. For the same compound, the “GSK3β phosphorylation (inactivation)” value in data set [2] (knockdown of FG01 in N2a/Swe cells vs scramble siRNA) was “decrease”.

The record behind these values is US20090233993A1, “COMPOSITIONS AND METHODS FOR INHIBITING GSK3 ACTIVITY AND USES THEREOF” (Burnham Institute for Medical Research, priority 2008, published 2009).
